From patent US20260015315A1, “AMINO LIPID COMPOUND, PREPARATION METHOD THEREFOR, COMPOSITION THEREOF AND APPLICATION THEREOF” (SHENZHEN SHENXIN BIOTECHNOLOGY CO., LTD., priority 2022, published 2026)

Key:
[1] = tested on: immune cell populations in different tissues and organs; experiment: Delivery efficiency of eGFP mRNA encapsulating LNP to immune cell populations in different tissues and organs (flow cytometry); type: in vivo; details: eGFP mRNA-LNP intravenous, C57BL/6 mice, 6 hours; spleen, axillary lymph nodes, peripheral blood, bone marrow, lungs, liver; FIGS. 1A to 1F
Experimental: C57BL/6 mice (3 mice per group) were intravenously injected with eGFP mRNA encapsulating LNP. After 6 hours, the mice were dissected, and the spleen, axillary lymph nodes, peripheral blood, bone marrow, lungs and liver were collected to prepare single-cell suspensions of various tissues and organs. After blocking with Fe blocking antibodies and surface staining with fluorescent-labeled antibodies, sample analysis was conducted by flow cytometry to analyze the expression levels of eGFP in various immune cell populations to confirm the delivery efficiency of lipid nanoparticles comprising different amino lipid compounds to immune cell populations in different tissues and organs.

[2] = tested on: BALB/c mice; experiment: In vivo delivery of lipid nanoparticle encapsulating luciferase mRNA (Fluc mRNA), IVIS imaging; details: for Total flux (fluorescence expression intensity): Fluc mRNA-LNP (amino lipid:DSPC:CHO-HP:PEG2000-DMG 48:10:40.5:1.5), whole body; for Total flux (fluorescence expression intensity) / Spleen (fluorescence expression intensity) / Liver (fluorescence expression intensity): 75 μL tail vein IV, female BALB/c mice, IVIS 6 hours after injection; for Spleen (fluorescence expression intensity) / (Spleen/Total Flux) * 100% / Multiple of spleen delivery/total delivery (Spleen/Total Flux) to Compound 118 / Liver (fluorescence expression intensity): Fluc mRNA-LNP; for (Spleen/Total Flux) * 100% / Multiple of spleen delivery/total delivery (Spleen/Total Flux) to Compound 118: tail vein IV, BALB/c mice, 6 hours; for Multiple of spleen delivery/total delivery (Spleen/Total Flux) to Compound 118: relative to Compound 118
Experimental: The amino lipid compound of the present disclosure, a helper lipid, a structural lipid, and a PEG-lipid were separately dissolved in absolute ethanol to prepare respective solutions at concentrations of 20 mg/mL, 10 mg/mL, 20 mg/mL, and 25 mg/mL, respectively. The above four solutions were pipetted at a molar ratio of the amino lipid compound: DSPC:CHO-HP:PEG2000-DMG of 48:10:40.5:1.5, and mixed well to prepare an alcohol phase.
(2) Encapsulation: The water phase and the alcohol phase were injected into a microfluidic chip at a flow rate of water phase:alcohol phase=12 mL/min: 4 mL/min by using a microfluidic preparation instrument (MPE-L2), and encapsulation was carried out at a flow rate of water phase:alcohol phase=9 mL/min: 3 mL/min to obtain mRNA-encapsulating lipid nanoparticle (mRNA-LNP).
(3) Dialysis: The product of step (2) was loaded in a dialysis bag and placed in a Tris Buffer-8% sucrose solution for replacement to remove ingredients such as residual ethanol, unassembled lipids. Dialysis was conducted for 2 h with magnetic stirring at room temperature and under protection from light (dialysate was replaced every 1 hour).
(4) The product of step (3) was sterilized by passing through a 0.22 μm microporous membrane, and then packaged.
Lipid nanoparticle formulations encapsulating Flue mRNA were prepared, with a concentration of Flue mRNA of 0.2 μg/μL, a mass ratio of Flue mRNA to Lipid of 1:10, a particle size of 80-130 nm, and a encapsulation efficiency of 80% or higher.
• Animal preparation: Female BALB/c mice of 6-8 weeks old were selected and raised in an SPF grade breeding room. Animal testing was conducted in strict accordance with the guidelines of national health institutions and animal ethics requirements.
In vivo Delivery: prior to injection of the test LNP formulations, the LNP formulations were gently and repeatedly inverted to thoroughly mix the formulation samples. A corresponding amount of the formulation samples were aspirated with a 1 ml insulin syringe, and the LNP formulations were injected by tail vein injection (IV), with 3 mice in duplicate per formulation. Each mouse was injected with 75 μL of the luciferase mRNA (Flue mRNA)-encapsulating lipid nanoparticle formulation prepared in Experimental Example 1.
6 hours after injection of LNP formulations, mice were injected with 200 μL D-Luciferin luciferase developing substrate (Catalog No. 122799; Manufacturer: Perkin Elmer). After the substrate was injected, the mice were anesthetized by injection of 200 μl of 2.5% avertin, and the injection time of luciferase developing substrate was recorded.
The fluorescence expression intensity induced by the lipid nanoparticle encapsulating luciferase mRNA (Flue mRNA) with a representative amino lipid compound is shown in Table 4, with the amino lipid compound 118 as a control.

CCCCCCC(CCCCCC)OC(=O)CCCCCCCCC(CCCCCCCCC(=O)OC(CCCCCC)CCCCCC)N(CCCN(C)C)C(=O)CCCOCCCCC [compound 130]
Delivery preference to immune cells (eGFP expression in immune cell populations) [1]: clear delivery preference to immune cells in various tissues and organs
Total flux (fluorescence expression intensity) [2]: 5.73E+07
Spleen (fluorescence expression intensity) [2]: 1.13E+07
(Spleen/Total Flux) * 100% [2]: 19.72%
Multiple of spleen delivery/total delivery (Spleen/Total Flux) to Compound 118 [2]: 17.30

CCCCCCOCCCC(=O)N(CCCN(C)C)C(CCCCCCCCC(=O)OC(CCCCCC)CCCCCC)CCCCCCCCC(=O)OC(CCCCCC)CCCCCC [compound 131]
Delivery preference to immune cells (eGFP expression in immune cell populations) [1]: clear delivery preference to immune cells in various tissues and organs
Total flux (fluorescence expression intensity) [2]: 3.26E+07
Spleen (fluorescence expression intensity) [2]: 6.59E+06
(Spleen/Total Flux) * 100% [2]: 20.21%
Multiple of spleen delivery/total delivery (Spleen/Total Flux) to Compound 118 [2]: 17.73

CCCCCCCCOCCCC(=O)N(CCCN(C)C)C(CCCCCCCCC(=O)OC(CCCCCC)CCCCCC)CCCCCCCCC(=O)OC(CCCCCC)CCCCCC [compound 133]
Delivery preference to immune cells (eGFP expression in immune cell populations) [1]: clear delivery preference to immune cells in various tissues and organs
Total flux (fluorescence expression intensity) [2]: 3.58E+07
Spleen (fluorescence expression intensity) [2]: 1.25E+07
(Spleen/Total Flux) * 100% [2]: 34.92%
Multiple of spleen delivery/total delivery (Spleen/Total Flux) to Compound 118 [2]: 30.63

CCCCCCC(CCCCCC)OC(=O)CCCCCCCCC(CCCCCCCCC(=O)OC(CCCCCC)CCCCCC)N(CCCCN(C)C)C(=O)COCCCCC [compound 167]
Total flux (fluorescence expression intensity) [2]: 4.02E+07
Liver (fluorescence expression intensity) [2]: 4.42E+06
Spleen (fluorescence expression intensity) [2]: 7.64E+06
(Spleen/Total Flux) * 100% [2]: 19.00%
Multiple of spleen delivery/total delivery (Spleen/Total Flux) to Compound 118 [2]: 16.67

CCCCCCOCC(=O)N(CCCCN(C)C)C(CCCCCCCCC(=O)OC(CCCCCC)CCCCCC)CCCCCCCCC(=O)OC(CCCCCC)CCCCCC [compound 168]
Total flux (fluorescence expression intensity) [2]: 2.68E+07
Liver (fluorescence expression intensity) [2]: 9.12E+06
Spleen (fluorescence expression intensity) [2]: 8.95E+06
(Spleen/Total Flux) * 100% [2]: 33.40%
Multiple of spleen delivery/total delivery (Spleen/Total Flux) to Compound 118 [2]: 29.29

CCCCCCCOCC(=O)N(CCCCN(C)C)C(CCCCCCCCC(=O)OC(CCCCCC)CCCCCC)CCCCCCCCC(=O)OC(CCCCCC)CCCCCC [compound 169]
Total flux (fluorescence expression intensity) [2]: 1.17E+07
Liver (fluorescence expression intensity) [2]: 6.59E+06
Spleen (fluorescence expression intensity) [2]: 5.11E+06
(Spleen/Total Flux) * 100% [2]: 43.68%
Multiple of spleen delivery/total delivery (Spleen/Total Flux) to Compound 118 [2]: 38.31

CCCCCCCCOCC(=O)N(CCCCN(C)C)C(CCCCCCCCC(=O)OC(CCCCCC)CCCCCC)CCCCCCCCC(=O)OC(CCCCCC)CCCCCC [compound 170]
Total flux (fluorescence expression intensity) [2]: 2.89E+07
Liver (fluorescence expression intensity) [2]: 1.34E+07
Spleen (fluorescence expression intensity) [2]: 1.07E+07
(Spleen/Total Flux) * 100% [2]: 37.02%
Multiple of spleen delivery/total delivery (Spleen/Total Flux) to Compound 118 [2]: 32.48

CCCCCCC(CCCCCC)OC(=O)CCCCCCCCC(CCCCCCCCC(=O)OC(CCCCCC)CCCCCC)N(CCCCN(C)C)C(=O)CCOCCCC [compound 171]
Total flux (fluorescence expression intensity) [2]: 1.15E+07
Liver (fluorescence expression intensity) [2]: 5.33E+06
Spleen (fluorescence expression intensity) [2]: 3.97E+06
(Spleen/Total Flux) * 100% [2]: 34.52%
Multiple of spleen delivery/total delivery (Spleen/Total Flux) to Compound 118 [2]: 30.28

CCCCCCC(CCCCCC)OC(=O)CCCCCCCCC(CCCCCCCCC(=O)OC(CCCCCC)CCCCCC)N(CCCCN(C)C)C(=O)CCOCCCCC [compound 172]
Total flux (fluorescence expression intensity) [2]: 8.64E+07
Liver (fluorescence expression intensity) [2]: 3.10E+07
Spleen (fluorescence expression intensity) [2]: 9.69E+06
(Spleen/Total Flux) * 100% [2]: 11.22%
Multiple of spleen delivery/total delivery (Spleen/Total Flux) to Compound 118 [2]: 9.84

CCCCCCOCCC(=O)N(CCCCN(C)C)C(CCCCCCCCC(=O)OC(CCCCCC)CCCCCC)CCCCCCCCC(=O)OC(CCCCCC)CCCCCC [compound 173]
Total flux (fluorescence expression intensity) [2]: 2.07E+07
Liver (fluorescence expression intensity) [2]: 9.15E+06
Spleen (fluorescence expression intensity) [2]: 8.03E+06
(Spleen/Total Flux) * 100% [2]: 38.79%
Multiple of spleen delivery/total delivery (Spleen/Total Flux) to Compound 118 [2]: 34.03

CCCCCCCOCCC(=O)N(CCCCN(C)C)C(CCCCCCCCC(=O)OC(CCCCCC)CCCCCC)CCCCCCCCC(=O)OC(CCCCCC)CCCCCC [compound 174]
Total flux (fluorescence expression intensity) [2]: 9.59E+07
Liver (fluorescence expression intensity) [2]: 1.62E+07
Spleen (fluorescence expression intensity) [2]: 7.28E+06
(Spleen/Total Flux) * 100% [2]: 7.59%
Multiple of spleen delivery/total delivery (Spleen/Total Flux) to Compound 118 [2]: 6.66

CCCCCCCCOCCC(=O)N(CCCCN(C)C)C(CCCCCCCCC(=O)OC(CCCCCC)CCCCCC)CCCCCCCCC(=O)OC(CCCCCC)CCCCCC [compound 175]
Total flux (fluorescence expression intensity) [2]: 5.15E+07
Liver (fluorescence expression intensity) [2]: 1.57E+07
Spleen (fluorescence expression intensity) [2]: 1.21E+07
(Spleen/Total Flux) * 100% [2]: 23.50%
Multiple of spleen delivery/total delivery (Spleen/Total Flux) to Compound 118 [2]: 20.61

CCCCCCC(CCCCCC)OC(=O)CCCCCCCCC(CCCCCCCCC(=O)OC(CCCCCC)CCCCCC)N(CCCCN(C)C)C(=O)CCCOCCCCC [compound 177]
Total flux (fluorescence expression intensity) [2]: 2.52E+07
Liver (fluorescence expression intensity) [2]: 5.04E+06
Spleen (fluorescence expression intensity) [2]: 3.23E+06
(Spleen/Total Flux) * 100% [2]: 12.82%
Multiple of spleen delivery/total delivery (Spleen/Total Flux) to Compound 118 [2]: 11.24

CCCCCCOCCCC(=O)N(CCCCN(C)C)C(CCCCCCCCC(=O)OC(CCCCCC)CCCCCC)CCCCCCCCC(=O)OC(CCCCCC)CCCCCC [compound 178]
Total flux (fluorescence expression intensity) [2]: 6.68E+07
Liver (fluorescence expression intensity) [2]: 1.15E+07
Spleen (fluorescence expression intensity) [2]: 3.95E+06
(Spleen/Total Flux) * 100% [2]: 5.91%
Multiple of spleen delivery/total delivery (Spleen/Total Flux) to Compound 118 [2]: 5.19
